Results taken from the supplement of paper PMC10331698.
± gives the standard deviation of the averaged measurements.

Columns and labels:
Assay in all cases: level (log10 ratio to DMSO vehicle control); higher = higher biomarker level / cell amount than vehicle control
[1] = compound: O=C(O)C=C(C(F)(F)F)C(F)(F)F [3,3-Bis(trifluoromethyl)-2-propenoic acid] (in DMSO)
Description: (§1)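 BioMAP Diversity Plus panel of 12 human primary cell co-culture systems (3C, 4H, LPS, SAg, BT, BF4T, BE3C, CASM3C, HDF3CGF, KF3CT, MyoF, Mphg). Compounds were added 1 h before stimulation and left for 24 h (MyoF 48 h; BT 72 h for soluble read-outs or 6 d for IgG). Biomarkers were read by ELISA, cytotoxicity by SRB, PBMC viability and proliferation by Alamar Blue. Each well value was divided by the mean of 8 DMSO control wells on the same plate and log10 transformed; duplicate blinded samples were tested at 4 concentrations.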

[2] = compound: O=C(O)C(F)(F)OC(F)(F)C(F)(F)OC(F)(F)C(F)(F)OC(F)(F)C(F)(F)C(F)(F)C(F)(F)F [Perfluoro-3,6,9-trioxatridecanoic acid] (in DMSO); conditions: 6700 nM
Description: as §1

[3] = compound: CCOC(=O)CC(=O)C(F)(F)C(F)(F)F [Ethyl pentafluoropropionyl acetate] (in DMSO)
Description: as §1

[4] = compound: C=C(C)C(=O)OCCC(F)(F)C(F)(F)C(F)(F)C(F)(F)C(F)(F)C(F)(F)C(F)(F)C(F)(F)F [8:2 Fluorotelomer methacrylate] (in DMSO)
Description: as §1

[5] = compound: CN(C(=O)C(F)(F)C(F)(F)C(F)(F)F)[Si](C)(C)C [N-Methyl-N-trimethylsilylheptafluorobutyramide] (in DMSO)
Description: as §1

[6] = compound: O=S(=O)(O)CCC(F)(F)C(F)(F)C(F)(F)C(F)(F)C(F)(F)C(F)(F)C(F)(F)C(F)(F)F [8:2 Fluorotelomer sulfonic acid] (in DMSO)
Description: as §1

[7] = compound: O=S(=O)(O)C(F)(F)C(F)(F)C(F)(F)C(F)(F)C(F)(F)C(F)(F)C(F)(F)F [Perfluoroheptanesulfonic acid] (in DMSO)
Description: as §1

Test System | level (log10) ([1]; 6700 nM) | level (log10) ([1]; 20000 nM) | level (log10) ([1]; 60000 nM) | level (log10) [2] | level (log10) ([3]; 6700 nM) | level (log10) ([3]; 20000 nM) | level (log10) ([3]; 60000 nM) | level (log10) ([4]; 6700 nM) | level (log10) ([4]; 20000 nM) | level (log10) ([5]; 6700 nM) | level (log10) ([5]; 20000 nM) | level (log10) ([5]; 60000 nM) | level (log10) ([6]; 6700 nM) | level (log10) ([6]; 20000 nM) | level (log10) ([6]; 60000 nM) | level (log10) ([7]; 1500 nM) | level (log10) ([7]; 4400 nM) | level (log10) ([7]; 13000 nM) | level (log10) ([7]; 40000 nM)
3C:CD87/uPAR | 0.0225 ± 0.0035 | 0.014 ± 0.02 | -0.0035 ± 0.013 | 0.0095 ± 0.028 | 0.011 ± 0.0042 | 0.0075 ± 0.00071 | -0.003 ± 0.011 | 0.046 ± 0.018 | 0.049 ± 0.013 | -0.0105 ± 0.0021 | -0.0155 ± 0.0078 | -0.007 ± 0.0042 | 0.0195 ± 0.016 | -0.001 ± 0.058 | -0.003 ± 0.03 | 0.0655 ± 0.0078 | 0.0535 ± 0.021 | 0.0485 ± 0.044 | 0.0565 ± 0.064
3C:CXCL8/IL-8 | 0.038 ± 0.02 | 0.0255 ± 0.04 | 0.061 ± 0.071 | -0.003 ± 0.027 | -0.0105 ± 0.0092 | -0.006 ± 0.0071 | 0.022 ± 0.031 | -0.005 ± 0.017 | 0.0305 ± 0.012 | -0.016 ± 0.0071 | -0.017 ± 0.0042 | 0.007 ± 0.017 | -0.0005 ± 0.13 | 0.012 ± 0.057 | 0.079 ± 0.024 | 0.007 ± 0.086 | -0.0115 ± 0.013 | 0.0015 ± 0.03 | 0.055 ± 0.054
3C:CXCL9/MIG | -0.015 ± 0.017 | -0.004 ± 0.028 | 0.013 ± 0.025 | 0.0115 ± 0.00071 | 0.001 ± 0.0028 | -0.0015 ± 0.0092 | 0.0025 ± 0.0078 | -0.002 ± 0.0028 | 0.0055 ± 0.0035 | -0.0045 ± 0.0035 | -0.0005 ± 0.0035 | 0.0065 ± 0.0092 | -0.004 ± 0.0014 | 0.004 ± 0.013 | -0.0045 ± 0.0035 | 0.006 ± 0.0014 | -0.006 ± 0.0071 | 0 ± 0.0057 | 0.0075 ± 0.011
3C:HLA-DR | -0.012 ± 0.014 | -0.0415 ± 0.039 | -0.189 ± 0.031 | -0.018 ± 0.04 | 0.019 ± 0.0099 | 0.0125 ± 0.054 | 0.01 ± 0.047 | -0.0035 ± 0.035 | 0.0115 ± 0.028 | 0.0015 ± 0.015 | 0.0045 ± 0.012 | 0.0285 ± 0.033 | -0.0155 ± 0.012 | -0.011 ± 0.0071 | -0.011 ± 0.0085 | 0.0125 ± 0.0064 | -0.0075 ± 0.0092 | -0.005 ± 0.024 | 0.008 ± 0.016
3C:Proliferation | -0.0425 ± 0.0021 | -0.089 ± 0.02 | -0.189 ± 0.1 | 0.0425 ± 0.016 | -0.0145 ± 0.043 | -0.033 ± 0.011 | -0.0135 ± 0.026 | -0.0315 ± 0.005 | -0.07 ± 0.034 | -0.0305 ± 0.0092 | 0.003 ± 0.027 | -0.005 ± 0.0057 | 0.004 ± 0.086 | -0.0315 ± 0.083 | -0.053 ± 0.018 | -0.0785 ± 0.13 | -0.0425 ± 0.044 | 0.0015 ± 0.022 | -0.0275 ± 0.021
3C:SRB | 0.0105 ± 0.019 | -0.005 ± 0.025 | -0.062 ± 0.03 | -0.002 ± 0.014 | 0.006 ± 0.0085 | 0.007 ± 0.0085 | 0.01 ± 0.034 | -0.0205 ± 0.0035 | -0.01 ± 0.021 | 0.0135 ± 0.013 | 0.0035 ± 0.032 | 0.0075 ± 0.011 | -0.017 ± 0.0057 | -0.019 ± 0.018 | -0.0705 ± 0.028 | -0.0295 ± 0.023 | -0.0275 ± 0.0078 | -0.0065 ± 0.016 | -0.0125 ± 0.023
4H:CCL2/MCP-1 | -0.051 ± 0.035 | -0.0675 ± 0.005 | -0.081 ± 0.052 | -0.029 ± 0.0099 | -0.0235 ± 0.029 | -0.0455 ± 0.064 | -0.008 ± 0.1 | -0.0075 ± 0.053 | 0.027 ± 0.034 | -0.0405 ± 0.028 | -0.0525 ± 0.039 | 0.0195 ± 0.11 | -0.001 ± 0.014 | -0.033 ± 0.016 | 0.0125 ± 0.046 | -0.0125 ± 0.094 | 0.0165 ± 0.081 | 0.03 ± 0.05 | 0.0135 ± 0.012
4H:CCL26/Eotaxin-3 | -0.02 ± 0.044 | -0.042 ± 0.0042 | -0.121 ± 0.0064 | -0.007 ± 0.038 | -0.007 ± 0.024 | 0.006 ± 0.0085 | -0.019 ± 0.018 | 0.0035 ± 0.037 | 0 ± 0.02 | -0.0005 ± 0.005 | -0.001 | -0.003 ± 0.024 | 0.0095 ± 0.06 | -0.0325 ± 0.015 | -0.075 ± 0.0042 | -0.006 ± 0.025 | -0.061 ± 0.035 | -0.0335 ± 0.011 | -0.0665 ± 0.022
4H:CD62P/P-selectin | 0.005 ± 0.0042 | -0.0505 ± 0.022 | -0.164 ± 0.028 | 0.033 ± 0.023 | 0.005 | -0.012 ± 0.038 | 0.009 ± 0.013 | -0.02 ± 0.02 | -0.0375 ± 0.0035 | -0.0065 ± 0.067 | -0.011 ± 0.052 | 0.002 ± 0.047 | -0.0315 ± 0.09 | -0.034 ± 0.099 | -0.015 ± 0.071 | -0.0225 ± 0.043 | -0.0165 ± 0.005 | -0.002 ± 0.02 | 0.0305 ± 0.022
4H:CD87/uPAR | -0.053 ± 0.038 | -0.0455 ± 0.037 | -0.025 ± 0.062 | 0.0145 ± 0.03 | -0.0055 ± 0.0064 | -0.0585 ± 0.07 | -0.0565 ± 0.13 | -0.0325 ± 0.0035 | -0.0345 ± 0.042 | 0.011 ± 0.021 | 0.0135 ± 0.016 | 0.0055 ± 0.019 | 0.026 ± 0.0028 | -0.01 ± 0.023 | -0.0345 ± 0.015 | -0.0135 ± 0.032 | 0.0325 ± 0.00071 | 0.0455 ± 0.005 | 0.0355 ± 0.029
4H:CD106/VCAM-1 | -0.12 ± 0.037 | -0.143 ± 0.017 | -0.25 ± 0.028 | -0.023 ± 0.0085 | -0.003 ± 0.034 | 0.03 ± 0.018 | 0.0215 ± 0.013 | -0.035 ± 0.018 | -0.0485 ± 0.0064 | -0.011 | -0.0305 ± 0.049 | -0.023 ± 0.065 | -0.0065 ± 0.025 | -0.018 ± 0.0014 | -0.0375 ± 0.0021 | -0.002 ± 0.062 | -0.029 ± 0.017 | -0.0345 ± 0.019 | -0.0295 ± 0.03
4H:SRB | -0.008 ± 0.0042 | -0.026 ± 0.027 | -0.0615 ± 0.015 | 0.0035 ± 0.0092 | 0.0055 ± 0.005 | 0.0045 ± 0.012 | 0.0015 ± 0.028 | -0.0205 ± 0.028 | -0.0105 ± 0.042 | 0.005 ± 0.0085 | 0.0055 ± 0.022 | -0.003 ± 0.011 | -0.012 ± 0.0014 | -0.0135 ± 0.012 | -0.018 ± 0.033 | -0.0185 ± 0.012 | -0.007 ± 0.014 | -0.0055 ± 0.013 | -0.0065 ± 0.018
4H:VEGFR2 | -0.02 | -0.019 ± 0.0099 | -0.04 ± 0.0057 | -0.0515 ± 0.047 | -0.0375 ± 0.036 | -0.0265 ± 0.06 | -0.022 ± 0.15 | 0.028 ± 0.023 | 0.015 ± 0.05 | 0.006 ± 0.0057 | 0.003 ± 0.0099 | 0.019 ± 0.042 | -0.0345 ± 0.12 | 0.003 ± 0.0014 | -0.026 ± 0.0028 | 0.023 ± 0.041 | -0.013 ± 0.0085 | -0.005 ± 0.044 | 0.043 ± 0.1
BE3C:CD54/ICAM-1 | -0.004 ± 0.017 | 0.0025 ± 0.0021 | 0.031 ± 0.04 | -0.688 ± 0.018 | 0.0175 ± 0.011 | 0.0185 ± 0.018 | 0.006 ± 0.0042 | -0.012 ± 0.018 | 0.002 ± 0.061 | -0.0005 ± 0.005 | 0.0045 ± 0.0064 | 0.001 ± 0.0028 | 0.0215 ± 0.018 | 0.013 ± 0.0042 | -0.02 ± 0.014 | 0.006 ± 0.027 | 0.0015 ± 0.022 | -0.0025 ± 0.036 | 0.0055 ± 0.052
BE3C:CD87/uPAR | -0.0365 ± 0.025 | -0.0635 ± 0.013 | -0.012 ± 0.013 | -0.48 ± 0.05 | 0.0145 ± 0.03 | -0.0045 ± 0.023 | 0.0065 ± 0.03 | -0.0135 ± 0.023 | 0.0015 ± 0.036 | 0.0055 ± 0.016 | 0.0275 ± 0.019 | 0.0275 ± 0.026 | 0.0225 ± 0.0035 | 0.0135 ± 0.011 | -0.01 ± 0.031 | 0.017 ± 0.024 | -0.0045 ± 0.015 | -0.0065 ± 0.03 | 0.05 ± 0.069
